In patent US20250304587A1, “WEE1 INHIBITOR, PREPARATION THEREFOR AND USE THEREOF” (JIANGSU TASLY DIYI PHARMACEUTICAL CO., LTD., priority 2022, published 2025):
Where two headings read alike, the source gives them in different places.

Experiments:
HT-29 cells = experiment: Cell Titer-Glo anti-proliferation, HT-29 cells; format: cell-based, human; details: 3 days, read-out: Anti-proliferative activity HT-29 (IC50 class)
How it was run: (§1)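 Each line was exposed to graded compound concentrations for 3 days at 37 °C, 5% CO2, with final DMSO at 0.2%. Viability was measured by Cell Titer-Glo luminescence, with untreated cells as the maximum and medium as the minimum signal. IC50 came from a variable-slope log(inhibitor)-response fit.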

[1] = Metabolic stability in liver microsomes, human; format: in vitro ADME
Protocol: (§2) Test Example 3: Evaluation of the Metabolic Stability of Liver Microsomes (Mouse and Human) In Vitro Microsomes were taken out from the −80° C. refrigerator, rapidly melted in a 37° C. water bath and placed on ice until ready to use. The test article was diluted with DMSO to prepare a 10 mM stock solution, and then diluted with acetonitrile to a 0.5 mM secondary stock solution. […] NADPH was diluted with Buffer C to a working solution of 6 mM for the starter solution. An acetonitrile solution containing an internal standard was prepared as the precipitant, and Verapamil-HCl was chosen as the internal standard at a concentration of 4 ng/ml. […] A separate plate with pointed bottom wells, noted as a precipitation plate, was added with 135 μL precipitant per well; 0 h samples were transferred to the plate after 10 min incubation and 15 μL of starter solution was added; the plate was placed on ice before centrifugation. The diluted starter solution was added in sufficient quantity to the dispensing plate to facilitate the multichannel pipette aspiration operation. The reaction was carried out on a warm incubation shaker and 15 μL of starter solution/sample is added to the plate using a multichannel pipette. The reaction was mixed with a slight shake to initiate the reaction, which was accurately timed and recorded using a timer; After the reaction time had elapsed, all the solution in the plate was aspirated using the multichannel pipette and added to the precipitation plate to terminate the reaction at that point in time. After all reactions had been terminated, the plates were shaken for ten minutes on a plate shaker at 600 rpm to precipitate the protein. The plate was centrifuged at 4° C. for 15 minutes at maximum rpm. 80 μL of supernatant was taken, 320 μL of pure water was added and mixed for LC-MS analysis.

CYP2D6 = CYP2D6 (Homo sapiens (Human), UniProt P10635); experiment: Cytochrome P450 inhibition (fluorescence), CYP2D6; format: in vitro ADME
CYP2D6, sequence (P10635 whole entry, canonical isoform): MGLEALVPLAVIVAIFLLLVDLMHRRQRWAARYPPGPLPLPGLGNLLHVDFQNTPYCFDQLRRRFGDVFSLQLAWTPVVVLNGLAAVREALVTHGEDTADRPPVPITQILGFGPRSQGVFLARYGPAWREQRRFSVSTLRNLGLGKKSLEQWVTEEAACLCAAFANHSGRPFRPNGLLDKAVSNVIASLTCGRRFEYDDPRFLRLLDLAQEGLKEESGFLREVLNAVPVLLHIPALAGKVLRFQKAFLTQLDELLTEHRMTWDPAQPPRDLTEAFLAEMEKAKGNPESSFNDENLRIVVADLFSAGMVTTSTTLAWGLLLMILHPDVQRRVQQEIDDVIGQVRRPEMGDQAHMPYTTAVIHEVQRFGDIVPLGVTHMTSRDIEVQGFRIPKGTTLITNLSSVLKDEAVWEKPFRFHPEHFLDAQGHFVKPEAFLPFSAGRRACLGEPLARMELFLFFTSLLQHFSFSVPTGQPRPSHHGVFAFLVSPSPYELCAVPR
Protocol: (§3) Enzymatic experiments were performed to quantify the inhibition of CYP450 enzyme activity of each isoform of CYP450 by small molecule inhibitors through fluorescence generated by the oxidation of the substrate by cytochrome P450. […] The Solution B composition used for the experiment was: 40 U/mL G6PDH (Sigma-aldrich, Cat #G6378). The substrate mix was 0.05× Solution A, 0.01× Solution B, 50 mM Potassium Phosphate, 0.01 mM BOMCC/0.01 mM EOMCC/0.001 mM DBOMF. […] The data were analyzed and processed using GraphPad Prism 6 software to obtain IC50 values.

CYP2C9 = CYP2C9 (Homo sapiens (Human), UniProt P11712); experiment: Cytochrome P450 inhibition (fluorescence), CYP2C9; format: in vitro ADME
CYP2C9, sequence (P11712 whole entry): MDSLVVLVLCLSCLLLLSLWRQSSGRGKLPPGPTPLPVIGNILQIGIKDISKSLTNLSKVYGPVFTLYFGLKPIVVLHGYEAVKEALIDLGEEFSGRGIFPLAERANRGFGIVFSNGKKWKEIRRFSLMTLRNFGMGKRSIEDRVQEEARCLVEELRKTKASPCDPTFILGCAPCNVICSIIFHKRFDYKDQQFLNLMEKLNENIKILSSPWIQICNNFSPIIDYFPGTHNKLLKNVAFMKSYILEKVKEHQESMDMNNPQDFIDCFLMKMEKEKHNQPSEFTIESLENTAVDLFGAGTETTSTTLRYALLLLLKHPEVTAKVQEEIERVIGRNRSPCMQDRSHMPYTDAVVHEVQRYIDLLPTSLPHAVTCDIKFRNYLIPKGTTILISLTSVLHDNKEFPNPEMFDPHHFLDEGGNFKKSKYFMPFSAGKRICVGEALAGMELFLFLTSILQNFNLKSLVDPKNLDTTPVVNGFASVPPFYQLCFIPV
Protocol: as §3

[2] = Metabolic stability in liver microsomes, mouse; format: in vitro ADME
Protocol: as §2

OVCAR-3 cells = experiment: Cell Titer-Glo anti-proliferation, OVCAR-3 cells; format: cell-based; details: 3 days, read-out: Anti-proliferative activity OVCAR-3 (IC50 class)
How it was run: as §1

[3] = Metabolic stability in liver microsomes, rat; format: in vitro ADME
Protocol: as §2, with “Microsomes” for “Test Example 3: Evaluation of the Metabolic Stability of Liver Microsomes (Mouse and Human) In Vitro Microsomes”

CYP3A4 = CYP3A4 (Homo sapiens (Human), UniProt P08684); experiment: Cytochrome P450 inhibition (fluorescence), CYP3A4; format: in vitro ADME
CYP3A4, sequence (P08684 whole entry): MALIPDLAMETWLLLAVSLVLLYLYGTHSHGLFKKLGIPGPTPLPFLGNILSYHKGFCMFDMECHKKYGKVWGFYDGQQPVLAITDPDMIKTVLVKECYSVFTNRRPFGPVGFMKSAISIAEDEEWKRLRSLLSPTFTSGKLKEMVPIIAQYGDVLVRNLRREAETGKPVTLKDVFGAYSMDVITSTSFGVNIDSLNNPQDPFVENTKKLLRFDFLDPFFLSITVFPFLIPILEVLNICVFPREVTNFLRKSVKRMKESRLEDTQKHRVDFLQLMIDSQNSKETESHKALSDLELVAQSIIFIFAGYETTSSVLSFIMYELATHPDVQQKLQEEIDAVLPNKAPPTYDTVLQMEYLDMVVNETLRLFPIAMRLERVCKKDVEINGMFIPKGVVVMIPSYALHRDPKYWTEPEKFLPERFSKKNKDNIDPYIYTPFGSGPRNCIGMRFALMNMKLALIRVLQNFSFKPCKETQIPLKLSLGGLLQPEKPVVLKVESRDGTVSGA
Protocol: as §3

[4] = Metabolic stability in liver microsomes, monkey; format: in vitro ADME
Protocol: as §2, with “Microsomes” for “Test Example 3: Evaluation of the Metabolic Stability of Liver Microsomes (Mouse and Human) In Vitro Microsomes”

plasma protein [5] = experiment: Plasma protein binding (equilibrium dialysis), mouse; details: mouse plasma, 1 μM, 5 h dialysis
CYP2C8 = CYP2C8 (Homo sapiens (Human), UniProt P10632); experiment: Cytochrome P450 inhibition (fluorescence), CYP2C8; format: in vitro ADME
CYP2C8, sequence (P10632 whole entry): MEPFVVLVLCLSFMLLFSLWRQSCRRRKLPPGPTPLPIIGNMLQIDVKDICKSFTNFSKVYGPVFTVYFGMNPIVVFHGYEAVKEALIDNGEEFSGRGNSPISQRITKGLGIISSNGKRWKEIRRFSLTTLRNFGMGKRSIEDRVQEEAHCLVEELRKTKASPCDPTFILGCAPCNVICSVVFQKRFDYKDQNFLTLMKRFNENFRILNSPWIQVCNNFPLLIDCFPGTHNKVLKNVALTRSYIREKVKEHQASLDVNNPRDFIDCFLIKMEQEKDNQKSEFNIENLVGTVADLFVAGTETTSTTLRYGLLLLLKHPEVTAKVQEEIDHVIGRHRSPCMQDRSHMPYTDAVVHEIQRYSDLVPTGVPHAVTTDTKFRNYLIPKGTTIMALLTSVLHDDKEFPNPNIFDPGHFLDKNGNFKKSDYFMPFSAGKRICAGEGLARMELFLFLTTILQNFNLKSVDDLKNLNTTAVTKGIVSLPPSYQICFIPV
Protocol: as §3

CYP1A2 = CYP1A2 (Homo sapiens (Human), UniProt P05177); experiment: Cytochrome P450 inhibition (fluorescence), CYP1A2; format: in vitro ADME
CYP1A2, sequence (P05177 whole entry): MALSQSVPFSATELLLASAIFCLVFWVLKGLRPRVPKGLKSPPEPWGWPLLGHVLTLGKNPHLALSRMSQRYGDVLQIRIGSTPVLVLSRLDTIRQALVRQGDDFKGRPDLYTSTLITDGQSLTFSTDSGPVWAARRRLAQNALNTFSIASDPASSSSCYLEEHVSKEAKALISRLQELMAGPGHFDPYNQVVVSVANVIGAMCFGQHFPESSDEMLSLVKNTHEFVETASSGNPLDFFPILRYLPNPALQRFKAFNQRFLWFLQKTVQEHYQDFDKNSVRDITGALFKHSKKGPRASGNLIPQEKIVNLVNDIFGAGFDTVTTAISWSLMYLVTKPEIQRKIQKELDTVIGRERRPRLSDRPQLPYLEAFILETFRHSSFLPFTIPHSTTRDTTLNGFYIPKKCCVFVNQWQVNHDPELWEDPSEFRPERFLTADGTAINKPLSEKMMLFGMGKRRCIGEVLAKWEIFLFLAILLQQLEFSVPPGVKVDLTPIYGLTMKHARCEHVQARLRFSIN
Protocol: as §3

[6] = Metabolic stability in liver microsomes, dog; format: in vitro ADME
Protocol: as §2, with “Microsomes” for “Test Example 3: Evaluation of the Metabolic Stability of Liver Microsomes (Mouse and Human) In Vitro Microsomes”

plasma protein [7] = experiment: Plasma protein binding (equilibrium dialysis), rat; format: in vitro ADME; details: 1 μM, 5 h dialysis
hERG potassium channel = hERG potassium channel (Homo sapiens (Human), UniProt Q12809); experiment: hERG potassium channel inhibition, patch clamp in CHO hERG cells
hERG potassium channel, sequence (Q12809 whole entry): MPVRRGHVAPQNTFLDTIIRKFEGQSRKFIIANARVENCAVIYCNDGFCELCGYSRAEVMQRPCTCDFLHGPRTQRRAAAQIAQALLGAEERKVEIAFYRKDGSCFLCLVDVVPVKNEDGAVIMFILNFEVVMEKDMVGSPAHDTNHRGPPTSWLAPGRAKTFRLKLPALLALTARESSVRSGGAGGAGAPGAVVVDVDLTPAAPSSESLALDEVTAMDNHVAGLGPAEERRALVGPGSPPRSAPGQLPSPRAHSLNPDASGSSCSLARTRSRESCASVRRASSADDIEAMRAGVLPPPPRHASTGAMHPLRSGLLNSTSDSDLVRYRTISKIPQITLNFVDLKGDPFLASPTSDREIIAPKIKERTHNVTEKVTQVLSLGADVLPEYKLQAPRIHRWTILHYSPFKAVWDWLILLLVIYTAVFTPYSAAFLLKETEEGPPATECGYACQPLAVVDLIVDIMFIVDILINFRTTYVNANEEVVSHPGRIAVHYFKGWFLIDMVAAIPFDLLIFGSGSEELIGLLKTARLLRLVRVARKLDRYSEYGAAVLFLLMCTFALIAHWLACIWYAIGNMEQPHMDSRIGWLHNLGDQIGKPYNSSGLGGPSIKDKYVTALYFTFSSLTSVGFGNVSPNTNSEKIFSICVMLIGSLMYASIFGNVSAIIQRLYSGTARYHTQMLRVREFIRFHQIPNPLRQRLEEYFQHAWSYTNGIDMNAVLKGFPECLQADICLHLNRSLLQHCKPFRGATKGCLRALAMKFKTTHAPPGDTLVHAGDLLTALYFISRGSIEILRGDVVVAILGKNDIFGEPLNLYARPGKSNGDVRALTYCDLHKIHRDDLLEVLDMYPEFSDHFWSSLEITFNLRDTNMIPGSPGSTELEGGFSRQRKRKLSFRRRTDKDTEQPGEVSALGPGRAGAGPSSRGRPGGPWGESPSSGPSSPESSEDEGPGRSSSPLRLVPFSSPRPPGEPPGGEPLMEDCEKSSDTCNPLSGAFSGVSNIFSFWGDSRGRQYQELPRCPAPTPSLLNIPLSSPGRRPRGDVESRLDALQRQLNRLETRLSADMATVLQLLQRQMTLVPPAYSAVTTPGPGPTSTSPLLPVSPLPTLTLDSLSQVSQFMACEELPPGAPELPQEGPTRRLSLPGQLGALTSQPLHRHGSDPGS
Protocol: The cell line used for the patch clamp assay was a 10th generation CHO cell overexpressing hERG potassium channel cDNA. CHO hERG cells were cultured in Petri dishes or flasks at 37° C. in a 5% CO2 incubator. Cells were dropped onto circular slides 24-48 hours prior to electrophysiological experiments and cultured in cell culture medium and used for experiments after the cells had been adhered.
Cell culture medium (purchased from Invitrogen) Composition: • Ham's F12 medium • 10% (v/v) heat inactivated FBS • 100 μg/ml Hygromycin B (thaumatin) • 100 μg/ml Geneticin (Genomycin, G418)
Compound powders are dissolved in the extracellular solution and are subjected to a routine 5 to 10 minute sonication and shaking to ensure complete dissolution of the compound.
The final concentrations of compounds used for electrophysiological assays were 5, 20 μM and the final concentration of DMSO was 0.1%.
Cell membrane currents were recorded using a HEKA EPC-10 USB patch-clamp amplifier (HEKA Elektronik, Germany). • 1) A coverslip with a large number of uniformly growing individual CHO hERG cells on its surface was taken. Place in a continuous recording cell on an inverted microscope, perfused with extracellular fluid (approximately 1 ml per minute) and recorded continuously, waiting for the current to stabilize. • 2) Record HERG channel currents for individual cells using standard whole cell recording mode. The membrane voltage is first clamped at −80 mV and the cell is given a +20 mV stimulus for 5 s to activate the hERG potassium channel, then repolarized to −50 mV for 5 s to generate an outward tail current, which is continuously perfused until the current is stable, at which point the peak tail current is the control current value. • 3) The extracellular solution containing the drug to be tested was then perfused and recorded until the inhibitory effect of the drug on the hERG current reached a steady state, at which point the peak tail current was the post-drug current value. • 4) The cells are again perfused with the extracellular solution until the hERG current returns to or approaches the level prior to the addition of the drug, then the perfusion can be continued to test other concentrations or drugs. One or more compound or drug concentrations may be tested on each cell. • 5) Cisapride (C4740-10 mg, Sigma) is used as a positive control in the experiment to ensure that the cells used respond properly.

BxPC3 cells = experiment: Cell Titer-Glo anti-proliferation, BxPC3 cells; format: cell-based, human; details: 3 days, read-out: Anti-proliferative activity BxPC3 (IC50 class)
How it was run: as §1

Wee1 protein = Wee1 protein (Homo sapiens (Human), UniProt P30291); experiment: TR-FRET binding of compound to Wee1 protein and Tracer 178; details: Tracer 178, read-out: IC50, inhibitory activity against Wee1 kinase
Wee1 protein, sequence (P30291 whole entry): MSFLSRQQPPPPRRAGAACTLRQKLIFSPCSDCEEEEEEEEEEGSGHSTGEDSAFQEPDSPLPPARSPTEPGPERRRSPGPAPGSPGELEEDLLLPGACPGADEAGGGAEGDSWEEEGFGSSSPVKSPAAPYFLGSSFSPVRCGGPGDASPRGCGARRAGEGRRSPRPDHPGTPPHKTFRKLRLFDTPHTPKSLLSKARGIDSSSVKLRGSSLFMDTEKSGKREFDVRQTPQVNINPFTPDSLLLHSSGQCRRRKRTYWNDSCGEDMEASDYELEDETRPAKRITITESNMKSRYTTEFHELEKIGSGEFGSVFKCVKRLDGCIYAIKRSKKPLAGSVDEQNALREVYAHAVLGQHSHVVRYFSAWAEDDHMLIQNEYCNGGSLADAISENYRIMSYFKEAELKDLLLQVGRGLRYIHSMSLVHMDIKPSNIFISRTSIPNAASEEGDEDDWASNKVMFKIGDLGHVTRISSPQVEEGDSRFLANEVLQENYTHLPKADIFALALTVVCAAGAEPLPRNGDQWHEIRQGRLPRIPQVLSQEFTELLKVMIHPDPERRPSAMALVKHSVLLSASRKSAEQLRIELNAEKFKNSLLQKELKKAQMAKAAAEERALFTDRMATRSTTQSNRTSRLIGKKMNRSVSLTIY
Protocol: First, solutions of the compounds in different concentration gradients were prepared. The compounds were dissolved in DMSO and the compounds were diluted 4 folds with a total of 10 dose points and 2 parallel replicates for each concentration.
The IC50 for inhibition of enzyme activity by the compounds was then calculated using GraphPad Prism 6 and fitted with a log (inhibitor) vs. response-Variable slope mode. The fitting equation was: Y=Bottom+(Top−Bottom)/(1+10^((Log IC50−X)*HillSlope)), where Y represents the percentage of residual enzyme activity known and X represents the known concentration of compound after the logarithm.

CYP2C19 = CYP2C19 (Homo sapiens (Human), UniProt P33261); experiment: Cytochrome P450 inhibition (fluorescence), CYP2C19; format: in vitro ADME
CYP2C19, sequence (P33261 whole entry): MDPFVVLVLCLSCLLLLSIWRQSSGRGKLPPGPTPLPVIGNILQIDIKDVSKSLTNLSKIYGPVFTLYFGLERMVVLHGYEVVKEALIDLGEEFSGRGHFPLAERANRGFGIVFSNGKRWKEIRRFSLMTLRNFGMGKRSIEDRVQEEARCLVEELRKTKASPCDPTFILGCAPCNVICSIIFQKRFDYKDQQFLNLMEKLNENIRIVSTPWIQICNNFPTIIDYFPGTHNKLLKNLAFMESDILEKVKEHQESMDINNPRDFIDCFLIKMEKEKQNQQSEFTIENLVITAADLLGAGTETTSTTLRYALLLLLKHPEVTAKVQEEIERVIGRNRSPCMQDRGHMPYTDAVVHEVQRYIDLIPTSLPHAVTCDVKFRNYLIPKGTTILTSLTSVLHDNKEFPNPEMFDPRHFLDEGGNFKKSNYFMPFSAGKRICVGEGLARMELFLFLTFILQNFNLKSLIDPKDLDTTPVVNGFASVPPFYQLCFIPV
Protocol: as §3

HK2 cells = experiment: Cell Titer-Glo anti-proliferation, normal cells HK2; format: cell-based
Protocol: (§4) Compound solutions of different concentration gradients were prepared. […] The cell growth group without compound was used as a positive control (maximum signal control) and the medium was used as a negative control (minimum signal control), while ensuring that the final level of DMSO in each reaction well was 0.2%. After removing the medium from the 384-well plate, 25 μl of the configured compound at different concentrations was transferred into the well plate and the compound and cells were incubated in the cell incubator at 37° C. with 5% CO2 for 3 days.
(§5) The 384-well plates were removed from the cell incubator and allowed to equilibrate for 1 h to room temperature. 25 μl of Cell Titer-Glo assay was added to each well, lysed on a shaker for 2 min and then read out (Luminescence) using a BMG PHERAStar after 10 min incubation. Calculate the inhibition rate from the luminescence signal.
(§6) to calculate the rate of inhibition of the cells by different concentrations of the compounds. The IC50 of the compound on cell activity inhibition was calculated by fitting a log(inhibitor) vs. response-Variable slope model to GraphPad Prism 6. The fitted equation was: Y=Bottom+(Top-Bottom)/(1+10^((Log IC50−X)*HillSlope)), where Y represents the rate of inhibition and X represents the concentration of the known compound after Log.
(§7) B. Evaluation of the Anti-Proliferative Effect of Compounds by the Cell Titer-Glo Method on Normal Cells HUVEC and HK2.
(§8) The test method is the same as the anti-proliferative activity evaluation of tumor cells.

HUVEC cells = experiment: Cell Titer-Glo anti-proliferation, normal cells HUVEC; format: cell-based
Protocol: as §4, §5, §6, §7, §8

CYP 2B6 = CYP 2B6 (Homo sapiens (Human), UniProt P20813); experiment: Cytochrome P450 inhibition, CYP2B6; format: in vitro ADME
Protocol: as §3

[8] = Saturated solubility in buffer at different pH; format: physicochemical
Protocol: The compound was placed in a buffer solution and shaken at constant temperature for 24 h. […] Chromatographic conditions: C18 column, mobile phase A: 0.02 M potassium dihydrogen phosphate:acetonitrile=90:10, mobile phase B: acetonitrile; V: 1.0 ml/min, T: 35° C., λ: 210 nm.

Caco-2 cells = experiment: Membrane permeability in Caco-2 model; format: in vitro ADME
Protocol: Caco-2 cells were purchased from the American Model Tissue Cell Collection (Rockville, MD). The cell culture medium was modified Eagle's medium (MEM) containing 10% inactivated fetal bovine serum and 1% non-essential amino acids. […] The cells were incubated for 21-28 days after inoculation for transport experiments and the apparent permeability (Papp) of Lucifer Yellow was used to characterize and verify the compactness of the cell monolayer. […] After the incubation, dilute the samples on the apical side and basolateral side, and the concentrations of compounds on the apical and basolateral sides were detected by LC-MS/MS, and the concentrations of the compounds were quantified by standard curve.

[9] = Toxicity in rats after 14 consecutive days of administration, survival; details: 75 mg/kg qd by gavage, 14 days

Structure (SMILES)	IC50 (HT-29 cells)	T1/2 liver microsomes Human [1]	IC50 (CYP2D6; read-out: IC50 CYP2D6)	IC50 (CYP2C9; read-out: IC50 CYP2C9)	T1/2 liver microsomes Mouse [2]	IC50 (OVCAR-3 cells)	T1/2 liver microsomes Rat [3]	IC50 (CYP3A4; read-out: IC50 CYP3A4)	T1/2 liver microsomes Monkey [4]	Plasma Protein binding (PPB) Mouse (plasma protein [5])	IC50 (CYP2C8; read-out: IC50 CYP2C8)	IC50 (CYP1A2)	T1/2 liver microsomes Dog [6]	Plasma Protein binding (PPB) Rat (plasma protein [7])	hERG Inhibition (hERG potassium channel; test concentration 5 μM)	hERG Inhibition (hERG potassium channel; test concentration 20 μM)	IC50 (BxPC3 cells)	IC50 (Wee1 protein)	IC50 (HK2 cells)	IC50 (HUVEC cells)	further results
C=CCn1c(=O)c2cnc(Nc3ccc(N4CCC5(CCN(C)CC5)CC4)cc3)nc2n1-c1ccc2c(n1)[C@](C)(O)C1(CC2)CC1 (racemic) [Compound 44]	100 to 1000 nM	77.75 min	> 10 µM	> 10 µM	62.8 min	100 to 1000 nM	>120 min	> 10 µM	30.09 min	98.46%	> 10 µM	> 10 µM	42.81 min	96.98%	77.68 ± 4.16%	91.56 ± 2.72%	100 to 1000 nM	–	–	–	–
C=CCn1c(=O)c2cnc(Nc3ccc(N4CCN(C)CC4)cc3)nc2n1-c1ccc2c(n1)C(C)(O)C1(CC1)C2 (stereo not drawn) [Compound 3]	100 to 1000 nM	–	–	–	–	1000 to 2000 nM	–	–	–	87.75%	–	–	–	–	–	–	1000 to 2000 nM	5 to 10 nM	–	–	IC50 (CYP2D6): > 10 µM; IC50 (CYP2C9): > 10 µM; IC50 (CYP3A4): > 10 µM; IC50 (CYP2C8): > 10 µM; IC50 (CYP1A2; read-out: IC50 CYP1A2): > 10 µM; IC50 (CYP2C19): > 10 µM
C=CCn1c(=O)c2cnc(Nc3ccc(N4CC5CC(C4)N5C)cc3)nc2n1-c1ccc2c(n1)[C@@](C)(O)C1(CC2)CC1 [Compound 7a]	100 to 1000 nM	63.40 min	> 10 µM	> 10 µM	72.56 min	100 to 1000 nM	21.4 min	> 10 µM	15.75 min	97.21%	> 10 µM	> 10 µM	92.48 min	94.82%	–	–	100 to 1000 nM	5 to 10 nM	670 nM	> 10 µM	–
C=CCn1c(=O)c2cnc(Nc3ccc(N4CCC5(CCN(C)CC5)CC4)cc3)nc2n1-c1ccc2c(n1)[C@H](O)C1(CC2)CC1 [Compound 37b]	100 to 1000 nM	–	> 10 µM	> 10 µM	–	100 to 1000 nM	–	> 10 µM	–	–	> 10 µM	> 10 µM	–	–	–	–	100 to 1000 nM	5 to 10 nM	1530 nM	> 10 µM	IC50 (CYP 2B6): > 10 µM; IC50 (CYP2C19; read-out: IC50 CYP2C19): > 10 µM
C=CCn1c(=O)c2cnc(Nc3ccc(N4CCN(C)CC4)cc3)nc2n1-c1ccc2c(n1)[C@@](O)(CC)CC2 [ZnC3, reference compound]	100 to 1000 nM	–	–	–	–	100 to 1000 nM	–	–	–	–	–	–	–	–	7.38 ± 1.59%	18.05 ± 7.58%	100 to 1000 nM	10 to 100 nM	340 nM	> 10 µM	Saturated solubility pH 5.0 ([8]; pH 5): 0.35 mg/mL; Saturated solubility pH 6.5 ([8]; pH 6.5): 0.59 mg/mL; Saturated solubility pH 7.4 ([8]; pH 7.4): 0.68 mg/mL; Efflux Ration (Caco-2 cells; Caco2): 35.74; Papp A to B (Caco-2 cells; Caco2, 10 μM, 90 min): 0.42 10^−6 cm/s; Papp B to A (Caco-2 cells; Caco2, 10 μM, 90 min): 15.01 10^−6 cm/s; Survival of Rats ([9]; female rats): 1/7; Survival of Rats ([9]; male rats): 2/7
